Measured values: patent publication US5215916A, “Super glucocorticoid receptors: receptors with increased affinity and specificity for glucocorticoid steriods” (priority 1991, dated 1993)
Changes are numbered by the printed parent chain.

Experiments:
[1] = biological target: T1, C656S mutant glucocorticoid receptor (Rattus norvegicus, UniProt P06536, C656S/D98G); assay: Competition binding assay with [3H]Dex, COS-7 cytosol, C656S receptor; conditions: for reduction in relative affinity on replacement of Cys-656 with serine: C656S vs wild type, 2.5 hr incubation
T1 construct: Thus the full length receptor was removed from the VARO vector with BamHI and inserted into the SVL vector; expressed in transfected cells; host or cells: COS-7 (cytosol)
T1 sequence (P06536 1-795 D98G/C656S): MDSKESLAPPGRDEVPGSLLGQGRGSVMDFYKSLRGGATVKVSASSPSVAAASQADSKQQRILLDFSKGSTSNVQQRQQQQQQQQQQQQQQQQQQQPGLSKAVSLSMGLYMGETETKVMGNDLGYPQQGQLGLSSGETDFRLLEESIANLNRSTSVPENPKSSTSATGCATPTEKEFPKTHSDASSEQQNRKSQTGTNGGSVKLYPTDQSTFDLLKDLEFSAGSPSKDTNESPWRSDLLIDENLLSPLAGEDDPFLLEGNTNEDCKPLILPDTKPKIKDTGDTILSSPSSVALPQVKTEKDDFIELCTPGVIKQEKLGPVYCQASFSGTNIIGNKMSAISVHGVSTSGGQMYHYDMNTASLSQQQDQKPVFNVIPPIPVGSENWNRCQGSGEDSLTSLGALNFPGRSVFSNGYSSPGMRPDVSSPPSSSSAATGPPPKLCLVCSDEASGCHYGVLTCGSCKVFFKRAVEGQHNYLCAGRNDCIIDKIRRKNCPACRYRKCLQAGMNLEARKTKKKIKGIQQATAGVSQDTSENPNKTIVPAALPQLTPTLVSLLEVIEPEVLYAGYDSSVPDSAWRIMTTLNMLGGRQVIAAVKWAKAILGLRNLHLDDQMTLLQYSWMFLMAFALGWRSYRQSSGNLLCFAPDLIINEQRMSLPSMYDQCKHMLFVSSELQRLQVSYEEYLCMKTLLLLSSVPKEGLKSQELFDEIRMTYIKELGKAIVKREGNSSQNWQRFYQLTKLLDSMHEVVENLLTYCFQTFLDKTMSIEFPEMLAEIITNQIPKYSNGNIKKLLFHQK
Description: (§1) Monolayer cultures of COS-7 cells were grown in DMEM (Gibco) supplemented with 5% fetal bovine serum (FBS) (Biofluids) at 37° C. in a 5% CO2 incubator. Standard calcium phosphate transfection methods were used to introduce the wild type and mutant receptor expression vectors (pSVL) into COS-7 cells (100 mm plates [Costar] at a cell density of about 10^6 /plate were each treated with 10 μg of plasmid DNA). After ~16 hrs of incubation at 37° C. in a 5% CO2 incubator, the excess calcium phosphate and precipitate were removed by washing with phosphate buffered saline (PBS). The cells were incubated at 37° C. for another ~48 hr in DMEM/ 5% FBS and harvested by trypsinization followed by centrifugation (for 10 min at 1570 ×g) and washing 3 times with PBS. The washed cells were stored at -80° C. until used.
(§2) Briefly, 30% cytosol solutions containing ~21 mM Na2 MoO4 were prepared with three parts COS-7 cell cytosol, 2 parts pH 9.5 TAPS buffer, and 5 parts pH 8.8 TAPS buffer. The total EtOH in each experiment was kept constant and at a level of ≤1%. […] After incubation for 2.5 hr, the [^3 H]Dex-Mes-labeled solutions were quick-frozen at -78° C. for subsequent SDS-polyacrylamide gel electrophoresis analysis. The specifically bound [^3 H]Dex was determined by first adding a 10% dextran-coated charcoal solution (added volume =20% of reaction solution volume) to remove free steroid and then subtracting the nonspecific binding seen in the presence of excess nonradioactive Dex.
(§3) The average specific binding was determined after 2.5 or 24 hr of incubation as described above, expressed as percentage of the non-competed control and plotted versus the log10 of the concentration of the competing steroid.
(§4) The initial data were collected from 2.5 hr binding assays because of concerns about the stability of the receptors over longer times.

[2] = biological target: T2, C661S mutant glucocorticoid receptor (Rattus norvegicus, UniProt P06536, C661S/D98G); assay: Competition binding assay with [3H]Dex, COS-7 cytosol, C661S receptor; conditions: for decrease in relative affinity on mutation of Cys-661: C661S vs wild type, 2.5 hr incubation
T2 construct: Thus the full length receptor was removed from the VARO vector with BamHI and inserted into the SVL vector; expressed in transfected cells; host or cells: COS-7 (cytosol)
T2 sequence (P06536 1-795 D98G/C661S): T1 sequence (P06536 1-795 D98G/C656S) with S656C, C661S
Description: as §1, §2, §3, §4

Row | SMILES | Relative Ka of Steroid Binding to Receptor [1] | reduction in relative affinity on replacement of Cys-656 with serine [1] [fold] | Relative Ka of Steroid Binding to Receptor [2] | decrease in relative affinity on mutation of Cys-661 [2] | effect of mutation of Cys-661 on binding [2]
1 | C[C@]12CC[C@@H]3c4ccc(O)cc4CC[C@H]3[C@@H]1CC[C@@H]2O [17β-Estradiol, 17β-estradiol] | 0.0015 | ≥ 10 | 0.0017 ± 0.0006 | approximately 10 fold | –
2 | C[C@]12CCC(=O)C=C1CC[C@@H]1[C@@H]2[C@@H](O)C[C@]2(C=O)[C@@H](C(=O)CO)CC[C@@H]12 [Aldosterone, aldosterone] | 0.068 | ≤ 3 | 0.016 ± 0.007 | approximately 10 fold | –
3 | CC#C[C@]1(O)CC[C@H]2[C@@H]3CCC4=CC(=O)CCC4=C3[C@@H](c3ccc(N(C)C)cc3)C[C@@]21C [RU486] | 3.4 | – | 3.84 ± 1.36 | – | little effect
